# Target: Poly [ADP-ribose] polymerase 1 (Homo sapiens, UniProt P09874)
# Test: PARP-1 Enzyme Activity Test Experiment
# Protocol: PARP-1 chemical […] detection kit was purchased from BPS Bioscience. The histone solution in the kit was diluted 5× with 1×PBS, and 25 μL of the diluted histone solution was added to a microwell plate and incubated overnight at 4° C. After the incubation, the plate was washed three times with PBST (0.05% Tween-20). 100 μL of the blocking solution was added to the microwell plate and incubated at 25° C. for 90 minutes. After the incubation was completed, the plate was washed three times with PBST. 2.5 μL of compounds at different concentrations diluted in test buffer and 12.5 μL of substrate mixed solution (1.25 μL 10×PARP test buffer; 1.25 μL 10×PARP test mixed solution; 2.5 μL Activated DNA, 7.5 μL double-distilled water) were added to the microwell plate. The PARP-1 enzyme was diluted to 2 ng/μL, […] was added to the microwell plate, and the reaction system was incubated at 25° C. for 60 minutes. After the incubation was completed, the plate was washed three times with PBST. Streptavidin-HRP was diluted 50× with a blocking solution, and 25 μL of the diluent was added to the microwell plate and incubated at 25° C. for 30 minutes. […] ELISA ECL substrate A and substrate B were uniformly mixed at a ratio of 1:1 (v/v), 50 μL of the mixture was added to the microwell plate, and the chemiluminescence value was read.
# Sequence of Poly [ADP-ribose] polymerase 1 (P09874 whole entry): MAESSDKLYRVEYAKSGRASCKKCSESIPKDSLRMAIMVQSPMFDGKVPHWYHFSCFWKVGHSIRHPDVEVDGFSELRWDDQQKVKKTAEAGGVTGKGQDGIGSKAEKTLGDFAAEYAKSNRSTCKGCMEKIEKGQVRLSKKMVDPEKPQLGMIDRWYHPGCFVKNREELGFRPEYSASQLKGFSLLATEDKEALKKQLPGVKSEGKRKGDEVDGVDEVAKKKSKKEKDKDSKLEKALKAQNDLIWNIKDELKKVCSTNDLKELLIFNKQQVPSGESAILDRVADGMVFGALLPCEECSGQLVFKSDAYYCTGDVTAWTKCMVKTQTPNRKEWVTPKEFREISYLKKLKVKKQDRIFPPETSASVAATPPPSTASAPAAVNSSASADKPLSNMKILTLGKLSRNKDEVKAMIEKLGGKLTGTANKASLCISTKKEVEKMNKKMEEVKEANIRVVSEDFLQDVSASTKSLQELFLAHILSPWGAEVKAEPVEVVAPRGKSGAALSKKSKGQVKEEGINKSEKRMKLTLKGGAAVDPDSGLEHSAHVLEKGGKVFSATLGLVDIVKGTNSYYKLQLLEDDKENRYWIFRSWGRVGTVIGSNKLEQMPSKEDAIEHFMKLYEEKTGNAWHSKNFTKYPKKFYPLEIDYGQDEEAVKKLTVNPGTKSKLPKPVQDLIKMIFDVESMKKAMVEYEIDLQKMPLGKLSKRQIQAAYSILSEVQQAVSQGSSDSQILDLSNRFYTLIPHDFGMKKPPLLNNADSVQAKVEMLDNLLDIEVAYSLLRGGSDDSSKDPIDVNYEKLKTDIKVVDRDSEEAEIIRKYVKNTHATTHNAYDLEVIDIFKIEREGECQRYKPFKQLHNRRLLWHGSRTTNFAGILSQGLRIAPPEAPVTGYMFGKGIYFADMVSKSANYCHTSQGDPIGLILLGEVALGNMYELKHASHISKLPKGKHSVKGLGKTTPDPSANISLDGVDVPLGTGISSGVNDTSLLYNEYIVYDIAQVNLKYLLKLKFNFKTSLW
smiles,measurement,value
"Cn1cc(NC(=O)c2ccc(N3CCN(Cc4ccc5nc(C(F)F)c(=O)[nH]c5c4F)CC3)c(F)n2)cn1 [US20250346571, Compound 15]",IC50,< 5 nM

# Source: BindingDB's records for patent US20250346571 (Xizang Haisco Pharmaceutical, 2025)
